Assays:
[1] = target: T1, human A1 subtype adenosine receptor (Homo sapiens, UniProt P30542); test: Affinity towards the adenosine A1 receptor ([3H]-DPCPX binding, CHO-K1 membranes); details: read-out: A1 Ki (nM) ± sd
T1 construct: expressed in transfected cells; host or cells: CHO-K1
T1 sequence (P30542 1-326): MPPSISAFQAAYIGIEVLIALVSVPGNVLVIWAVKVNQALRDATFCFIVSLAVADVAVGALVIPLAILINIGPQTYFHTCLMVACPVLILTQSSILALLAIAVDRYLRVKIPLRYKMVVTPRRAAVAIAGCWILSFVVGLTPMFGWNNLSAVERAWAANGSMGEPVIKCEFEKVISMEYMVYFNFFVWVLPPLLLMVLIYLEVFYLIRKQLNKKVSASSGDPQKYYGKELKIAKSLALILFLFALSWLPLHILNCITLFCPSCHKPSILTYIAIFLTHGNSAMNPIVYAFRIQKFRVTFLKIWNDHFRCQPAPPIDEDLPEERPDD

[2] = target: T2, human A3 subtype adenosine receptor (Homo sapiens, UniProt P0DMS8); test: Affinity towards the adenosine A3 receptor ([125I]AB-MECA binding, HEK-293 membranes); details: test compounds; read-out: A3 (h) Ki
T2 construct: expressed in transfected cells; host or cells: HEK-293

[3] = system: α1(non-selective); test: Receptor binding study, α1; details: 1 μM; mean values, n = 2
[4] = target: β1 (Homo sapiens, UniProt P08588); test: Receptor binding study, β1; details: mean values, n = 2, read-out: percent inhibition of control specific binding
[5] = target: β2 (Homo sapiens, UniProt P07550); test: Receptor binding study, β2; details: mean values, n = 2, read-out: percent inhibition of control specific binding
[6] = target: D1 (Homo sapiens, UniProt P21728); test: Receptor binding study, D1; details: mean values, n = 2, read-out: percent inhibition of control specific binding
[7] = target: D3 (Homo sapiens, UniProt P35462); test: Receptor binding study, D3; details: mean values, n = 2, read-out: percent inhibition of control specific binding
[8] = target: D4.4 (h) (Homo sapiens, UniProt P21917); test: Receptor binding study, D4.4; details: mean values, n = 2, read-out: percent inhibition of control specific binding
[9] = target: D5 (h) (Homo sapiens, UniProt P21918); test: Receptor binding study, D5; details: mean values, n = 2, read-out: percent inhibition of control specific binding
[10] = system: GABAa; test: Receptor binding study, GABAa; details: 1 μM; mean values, n = 2
[11] = target: GABAb (Homo sapiens, UniProt Q9UBS5); test: Receptor binding study, GABAb; details: mean values, n = 2, read-out: percent inhibition of control specific binding
[12] = system: AMPA; test: Receptor binding study, AMPA; details: 1 μM; mean values, n = 2
[13] = system: P2X; test: Receptor binding study, P2X; details: 1 μM; mean values, n = 2
[14] = system: NMDA; test: Receptor binding study, NMDA; details: 1 μM; mean values, n = 2
[15] = target: H1 (central) (Cavia porcellus, UniProt P31389); test: Receptor binding study, H1 (central); details: mean values, n = 2, read-out: percent inhibition of control specific binding
[16] = target: M1 (Homo sapiens, UniProt P11229); test: Receptor binding study, M1; details: mean values, n = 2, read-out: percent inhibition of control specific binding
[17] = target: M2 (Homo sapiens, UniProt P08172); test: Receptor binding study, M2; details: mean values, n = 2, read-out: percent inhibition of control specific binding
[18] = target: M4 (Homo sapiens, UniProt P08173); test: Receptor binding study, M4; details: mean values, n = 2, read-out: percent inhibition of control specific binding
[19] = target: T3, M5 (Homo sapiens, UniProt P08912); test: Receptor binding study, M5; details: 1 μM; mean values, n = 2; read-out: percent inhibition of control specific binding
T3 sequence (P08912 1-532): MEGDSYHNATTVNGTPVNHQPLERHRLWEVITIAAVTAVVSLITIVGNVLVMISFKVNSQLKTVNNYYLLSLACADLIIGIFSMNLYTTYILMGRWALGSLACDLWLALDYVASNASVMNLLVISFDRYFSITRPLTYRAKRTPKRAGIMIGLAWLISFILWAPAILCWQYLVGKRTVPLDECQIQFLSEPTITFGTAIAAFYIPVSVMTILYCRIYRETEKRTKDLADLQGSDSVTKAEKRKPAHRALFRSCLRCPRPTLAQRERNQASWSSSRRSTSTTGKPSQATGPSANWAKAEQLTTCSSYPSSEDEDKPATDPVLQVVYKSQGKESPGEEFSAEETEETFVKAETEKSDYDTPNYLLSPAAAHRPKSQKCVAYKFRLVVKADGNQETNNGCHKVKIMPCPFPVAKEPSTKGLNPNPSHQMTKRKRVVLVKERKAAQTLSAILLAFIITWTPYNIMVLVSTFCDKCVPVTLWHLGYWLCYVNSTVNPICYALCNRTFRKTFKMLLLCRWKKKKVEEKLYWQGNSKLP

[20] = target: T4, Cholinetransporter (Homo sapiens, UniProt Q9GZV3); test: Receptor binding study, Choline transporter; details: 1 μM; mean values, n = 2; read-out: percent inhibition of control specific binding
T4 sequence (Q9GZV3 1-580): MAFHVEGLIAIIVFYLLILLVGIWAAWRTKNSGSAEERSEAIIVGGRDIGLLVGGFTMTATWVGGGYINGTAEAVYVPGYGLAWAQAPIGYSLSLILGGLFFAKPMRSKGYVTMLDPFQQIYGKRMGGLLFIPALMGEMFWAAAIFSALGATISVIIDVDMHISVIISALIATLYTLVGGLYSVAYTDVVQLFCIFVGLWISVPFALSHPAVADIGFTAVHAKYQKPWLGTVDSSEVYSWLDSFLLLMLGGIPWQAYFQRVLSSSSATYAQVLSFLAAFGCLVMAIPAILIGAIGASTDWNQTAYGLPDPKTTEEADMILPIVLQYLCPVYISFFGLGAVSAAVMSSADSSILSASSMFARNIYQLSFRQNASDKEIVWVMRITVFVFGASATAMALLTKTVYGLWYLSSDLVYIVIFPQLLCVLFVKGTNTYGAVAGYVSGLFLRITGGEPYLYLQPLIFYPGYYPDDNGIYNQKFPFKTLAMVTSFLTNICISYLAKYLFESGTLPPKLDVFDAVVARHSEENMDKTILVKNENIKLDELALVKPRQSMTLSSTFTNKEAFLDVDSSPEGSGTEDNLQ

[21] = system: Opiate (non-selective); test: Receptor binding study, Opiate (non-selective); details: 1 μM; mean values, n = 2
[22] = target: 5-HT2A (Homo sapiens, UniProt P28223); test: Receptor binding study, 5-HT2A; details: mean values, n = 2, read-out: percent inhibition of control specific binding
[23] = target: 5-HT2C (h) (Homo sapiens, UniProt P28335); test: Receptor binding study, 5-HT2C; details: mean values, n = 2, read-out: percent inhibition of control specific binding
[24] = target: 5-HT6 (h) (Homo sapiens, UniProt P50406); test: Receptor binding study, 5-HT6; details: mean values, n = 2, read-out: percent inhibition of control specific binding
[25] = target: DA transporter (Homo sapiens, UniProt Q01959); test: Receptor binding study, DA transporter; details: mean values, n = 2, read-out: percent inhibition of control specific binding
Sequence of DA transporter (Q01959 whole entry, species assumed): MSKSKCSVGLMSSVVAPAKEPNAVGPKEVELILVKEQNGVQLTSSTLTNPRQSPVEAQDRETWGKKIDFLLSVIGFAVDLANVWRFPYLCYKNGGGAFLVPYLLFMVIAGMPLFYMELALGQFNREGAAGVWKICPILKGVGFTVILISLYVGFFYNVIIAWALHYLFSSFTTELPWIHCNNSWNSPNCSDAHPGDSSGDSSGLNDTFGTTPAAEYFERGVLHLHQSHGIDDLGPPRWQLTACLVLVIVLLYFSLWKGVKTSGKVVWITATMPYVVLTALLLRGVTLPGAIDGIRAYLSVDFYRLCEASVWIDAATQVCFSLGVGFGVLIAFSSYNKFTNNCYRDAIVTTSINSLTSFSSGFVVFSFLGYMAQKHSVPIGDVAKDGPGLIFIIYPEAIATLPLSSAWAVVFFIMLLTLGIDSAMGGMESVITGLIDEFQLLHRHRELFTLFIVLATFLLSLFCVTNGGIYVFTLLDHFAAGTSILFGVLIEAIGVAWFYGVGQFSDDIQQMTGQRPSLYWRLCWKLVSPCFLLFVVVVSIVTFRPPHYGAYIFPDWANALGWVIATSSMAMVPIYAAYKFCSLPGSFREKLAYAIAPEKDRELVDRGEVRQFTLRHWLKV

Sequence of 5-HT2C (h) (P28335 33-458): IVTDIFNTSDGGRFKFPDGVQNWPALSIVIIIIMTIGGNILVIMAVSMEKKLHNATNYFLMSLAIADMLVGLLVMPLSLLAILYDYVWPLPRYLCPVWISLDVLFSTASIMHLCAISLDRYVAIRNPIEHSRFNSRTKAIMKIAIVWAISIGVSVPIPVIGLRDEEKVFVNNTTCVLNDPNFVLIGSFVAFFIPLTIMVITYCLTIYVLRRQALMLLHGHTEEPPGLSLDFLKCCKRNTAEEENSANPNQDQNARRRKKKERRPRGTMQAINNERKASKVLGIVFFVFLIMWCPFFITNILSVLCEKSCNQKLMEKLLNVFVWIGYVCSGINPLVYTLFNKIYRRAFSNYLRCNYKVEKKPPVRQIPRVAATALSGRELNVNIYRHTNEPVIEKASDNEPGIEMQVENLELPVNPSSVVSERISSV
Sequence of M2 (P08172 whole entry): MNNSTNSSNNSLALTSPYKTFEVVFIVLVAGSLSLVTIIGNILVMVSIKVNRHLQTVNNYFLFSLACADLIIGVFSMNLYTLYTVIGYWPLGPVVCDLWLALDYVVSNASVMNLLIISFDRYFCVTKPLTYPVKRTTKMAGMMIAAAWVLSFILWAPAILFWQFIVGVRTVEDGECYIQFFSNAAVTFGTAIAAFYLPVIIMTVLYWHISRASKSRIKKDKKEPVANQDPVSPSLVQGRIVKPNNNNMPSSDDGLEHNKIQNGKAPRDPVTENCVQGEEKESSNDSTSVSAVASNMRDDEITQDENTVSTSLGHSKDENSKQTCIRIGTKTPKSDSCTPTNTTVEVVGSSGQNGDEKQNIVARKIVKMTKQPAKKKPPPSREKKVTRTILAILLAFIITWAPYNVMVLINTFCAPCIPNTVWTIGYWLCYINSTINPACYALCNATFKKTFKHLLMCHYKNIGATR
Sequence of β2 (P07550 whole entry): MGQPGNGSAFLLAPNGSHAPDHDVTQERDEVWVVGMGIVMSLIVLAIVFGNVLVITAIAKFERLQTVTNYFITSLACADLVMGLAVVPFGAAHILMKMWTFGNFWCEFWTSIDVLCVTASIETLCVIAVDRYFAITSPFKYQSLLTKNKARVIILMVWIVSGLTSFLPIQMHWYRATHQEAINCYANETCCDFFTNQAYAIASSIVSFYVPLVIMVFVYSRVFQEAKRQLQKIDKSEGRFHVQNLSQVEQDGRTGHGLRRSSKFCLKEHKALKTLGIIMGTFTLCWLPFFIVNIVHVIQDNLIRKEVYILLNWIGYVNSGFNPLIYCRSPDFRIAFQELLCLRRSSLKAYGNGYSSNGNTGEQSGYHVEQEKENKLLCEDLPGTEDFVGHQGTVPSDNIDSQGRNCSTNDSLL
T2 sequence (P0DMS8 whole entry): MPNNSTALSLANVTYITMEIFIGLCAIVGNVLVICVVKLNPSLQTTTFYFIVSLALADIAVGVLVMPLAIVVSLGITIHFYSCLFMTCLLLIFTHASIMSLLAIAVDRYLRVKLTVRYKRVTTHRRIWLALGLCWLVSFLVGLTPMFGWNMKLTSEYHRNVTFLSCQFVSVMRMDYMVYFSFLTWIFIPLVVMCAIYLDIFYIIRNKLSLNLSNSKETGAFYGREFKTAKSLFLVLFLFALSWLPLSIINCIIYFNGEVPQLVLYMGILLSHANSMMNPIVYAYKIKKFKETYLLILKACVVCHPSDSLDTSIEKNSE
Sequence of D5 (h) (P21918 whole entry): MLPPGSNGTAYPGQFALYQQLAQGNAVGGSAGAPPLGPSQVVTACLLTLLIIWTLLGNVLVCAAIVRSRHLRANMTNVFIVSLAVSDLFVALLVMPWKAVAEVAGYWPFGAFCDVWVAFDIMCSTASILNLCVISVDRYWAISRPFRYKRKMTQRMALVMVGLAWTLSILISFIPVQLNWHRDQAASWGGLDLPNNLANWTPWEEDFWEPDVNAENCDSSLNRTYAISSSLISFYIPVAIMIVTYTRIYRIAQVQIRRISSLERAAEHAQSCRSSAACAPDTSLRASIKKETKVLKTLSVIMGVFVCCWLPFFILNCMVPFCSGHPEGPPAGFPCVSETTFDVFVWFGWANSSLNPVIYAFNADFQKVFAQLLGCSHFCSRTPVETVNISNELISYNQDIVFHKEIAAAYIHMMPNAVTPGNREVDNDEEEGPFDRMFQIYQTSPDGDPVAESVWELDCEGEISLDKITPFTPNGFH
Sequence of M4 (P08173 whole entry): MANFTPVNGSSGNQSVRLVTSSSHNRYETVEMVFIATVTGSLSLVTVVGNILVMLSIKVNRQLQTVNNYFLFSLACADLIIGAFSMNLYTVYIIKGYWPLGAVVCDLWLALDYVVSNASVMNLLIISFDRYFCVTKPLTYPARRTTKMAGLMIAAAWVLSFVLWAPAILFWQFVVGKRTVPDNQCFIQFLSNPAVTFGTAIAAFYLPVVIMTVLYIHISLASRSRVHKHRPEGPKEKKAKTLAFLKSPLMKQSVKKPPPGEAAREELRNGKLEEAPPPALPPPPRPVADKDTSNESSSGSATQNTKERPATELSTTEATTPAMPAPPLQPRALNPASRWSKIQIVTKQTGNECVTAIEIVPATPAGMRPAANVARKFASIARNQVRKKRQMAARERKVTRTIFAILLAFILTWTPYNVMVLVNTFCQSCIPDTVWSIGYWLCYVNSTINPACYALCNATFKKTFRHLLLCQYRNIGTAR
Sequence of D1 (P21728 whole entry): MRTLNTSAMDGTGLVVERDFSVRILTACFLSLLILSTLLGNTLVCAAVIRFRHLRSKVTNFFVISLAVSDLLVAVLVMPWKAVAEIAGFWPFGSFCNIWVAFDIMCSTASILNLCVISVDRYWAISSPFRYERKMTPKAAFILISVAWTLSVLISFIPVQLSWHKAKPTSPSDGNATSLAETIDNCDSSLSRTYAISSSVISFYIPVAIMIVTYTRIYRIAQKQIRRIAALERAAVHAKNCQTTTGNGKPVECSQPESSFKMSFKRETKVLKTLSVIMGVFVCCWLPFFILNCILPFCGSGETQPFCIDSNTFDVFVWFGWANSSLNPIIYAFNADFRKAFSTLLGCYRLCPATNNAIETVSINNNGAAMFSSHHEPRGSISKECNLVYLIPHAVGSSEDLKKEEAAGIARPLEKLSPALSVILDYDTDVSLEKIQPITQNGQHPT
Sequence of D3 (P35462 whole entry): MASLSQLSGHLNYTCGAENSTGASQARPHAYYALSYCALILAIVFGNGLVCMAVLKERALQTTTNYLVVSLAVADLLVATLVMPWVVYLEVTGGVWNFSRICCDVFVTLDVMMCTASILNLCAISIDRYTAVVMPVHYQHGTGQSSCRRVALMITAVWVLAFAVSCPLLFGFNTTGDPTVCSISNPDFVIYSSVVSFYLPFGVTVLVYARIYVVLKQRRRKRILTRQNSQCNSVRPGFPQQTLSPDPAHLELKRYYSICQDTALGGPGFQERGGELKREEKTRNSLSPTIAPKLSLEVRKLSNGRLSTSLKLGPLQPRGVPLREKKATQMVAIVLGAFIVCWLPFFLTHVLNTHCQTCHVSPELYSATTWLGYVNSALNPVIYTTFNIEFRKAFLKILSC
Sequence of 5-HT2A (P28223 whole entry, species assumed): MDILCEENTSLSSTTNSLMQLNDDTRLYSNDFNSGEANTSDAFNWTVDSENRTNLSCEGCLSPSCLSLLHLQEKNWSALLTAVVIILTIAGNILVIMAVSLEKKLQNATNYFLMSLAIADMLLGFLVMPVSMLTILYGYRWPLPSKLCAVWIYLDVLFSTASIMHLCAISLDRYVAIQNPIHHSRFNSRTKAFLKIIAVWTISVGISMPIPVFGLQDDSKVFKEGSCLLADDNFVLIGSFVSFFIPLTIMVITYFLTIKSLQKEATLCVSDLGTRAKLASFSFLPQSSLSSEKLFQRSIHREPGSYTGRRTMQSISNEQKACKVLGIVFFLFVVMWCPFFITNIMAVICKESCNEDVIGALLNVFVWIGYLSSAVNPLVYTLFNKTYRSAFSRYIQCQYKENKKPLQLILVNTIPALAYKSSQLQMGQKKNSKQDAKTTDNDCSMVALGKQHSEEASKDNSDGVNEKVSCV
Sequence of D4.4 (h) (P21917 whole entry): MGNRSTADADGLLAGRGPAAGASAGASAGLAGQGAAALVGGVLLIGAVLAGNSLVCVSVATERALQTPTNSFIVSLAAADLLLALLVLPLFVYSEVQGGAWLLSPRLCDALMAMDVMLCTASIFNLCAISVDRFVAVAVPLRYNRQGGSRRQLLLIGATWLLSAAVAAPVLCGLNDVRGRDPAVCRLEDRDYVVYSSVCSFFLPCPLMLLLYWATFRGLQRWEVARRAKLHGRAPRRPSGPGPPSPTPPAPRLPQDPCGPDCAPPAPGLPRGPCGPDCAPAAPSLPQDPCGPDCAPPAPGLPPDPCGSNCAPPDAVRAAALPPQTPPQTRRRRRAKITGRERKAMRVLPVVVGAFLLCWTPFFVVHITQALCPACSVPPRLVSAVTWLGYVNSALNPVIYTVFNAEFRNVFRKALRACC

Row | Compound | Ki [1] [nM] | Ki [2] [nM] | percent inhibition of control specific binding [3] | inhibition at 1 µM [4] [%] | inhibition at 1 µM [5] [%] | inhibition at 1 µM [6] [%] | inhibition at 1 µM [7] [%] | inhibition at 1 µM [8] [%] | inhibition at 1 µM [9] [%] | percent inhibition of control specific binding [10] | inhibition at 1 µM [11] [%] | percent inhibition of control specific binding [12] | percent inhibition of control specific binding [13] | percent inhibition of control specific binding [14] | inhibition at 1 µM [15] [%] | inhibition at 1 µM [16] [%] | inhibition at 1 µM [17] [%] | inhibition at 1 µM [18] [%] | inhibition at 1 µM [19] [%] | inhibition at 1 µM [20] [%] | further results
1 | CCCCc1nc(N)c2nc(-n3nccn3)n(C)c2n1 [ST 1535, 2-butyl-9-methyl-8-(2H-1,2,3-triazol-2-yl)-9H-purine-6-ylamine] | 107 ± 40 | 1580 | — (The symbol — indicates an inhibition of less than 10%.) | < 10 | < 10 | < 10 | < 10 | < 10 | < 10 | — (The symbol — indicates an inhibition of less than 10%.) | < 10 | — (The symbol — indicates an inhibition of less than 10%.) | — (The symbol — indicates an inhibition of less than 10%.) | — (The symbol — indicates an inhibition of less than 10%.) | < 10 | < 10 | < 10 | < 10 | < 10 | < 10 | percent inhibition of control specific binding [21]: — (The symbol — indicates an inhibition of less than 10%.); inhibition at 1 µM [22]: < 10%; inhibition at 1 µM [23]: < 10%; inhibition at 1 µM [24]: < 10%; inhibition at 1 µM [25]: < 10%
2 | CCCCCc1nc(N)c2nc(-n3nccn3)n(C)c2n1 [ST 2097, 9-methyl-2-pentyl-8-(2H-1,2,3-triazol-2-yl)-9H-purine-6-ylamine] | 26.2 ± 6.55 | 519 | — (The symbol — indicates an inhibition of less than 10%.) | < 10 | < 10 | < 10 | < 10 | < 10 | < 10 | — (The symbol — indicates an inhibition of less than 10%.) | < 10 | — (The symbol — indicates an inhibition of less than 10%.) | — (The symbol — indicates an inhibition of less than 10%.) | — (The symbol — indicates an inhibition of less than 10%.) | < 10 | < 10 | < 10 | < 10 | < 10 | < 10 | percent inhibition of control specific binding [21]: — (The symbol — indicates an inhibition of less than 10%.); inhibition at 1 µM [22]: < 10%; inhibition at 1 µM [23]: < 10%; inhibition at 1 µM [24]: < 10%; inhibition at 1 µM [25]: < 10%

Reference: patent US7528252B2, “Derivatives of triazoly-imidazopyridine useful as ligands of the adenosine A2a receptor and their use as medicaments” (Sigma-Tau Industrie Farmaceutiche Riunite S.p.A., priority 2002, dated 2009)
